Measured values: US20190160064A1, “METHODS FOR TREATING SKELETAL MUSCLE CACHEXIA ARISING FROM BURN INJURY BY ADMINISTERING PDE4B-SELECTIVE INHIBITORS” (University of Cincinnati, priority 2017, published 2019)

Legend:
[1] = tested on: EDL muscle of burned WT rats; test: Pre-treatment of WT rats before burn injury, EDL muscle protein breakdown (Example 6); assay type: in vivo, rat; conditions: adult WT rats pre-treated daily for 7 days before 30% TBSA burn, 24 h after burn, vs. saline control WT rats
Experimental: Adult WT rats are pre-treated with either PDE4B-selective inhibitor (4-{[2-(5-Chloro-2-thienyl)-5-ethyl-6-methyl-4-pyrimidinyl]amino}phenyl)acetic acid (test group) or saline (control group). Rats are treated daily for 7 days prior to burn exposure. On day 8, rats are anaesthetized, shaved, and subjected to a third-degree burn on the back, affecting 30% of total body surface area (TBSA). Both test WT rats and control WT rats are then resuscitated. All rats are provided with rat chow equivalent to ˜10% of their body weight.
After 24 h, all rats are re-anesthetized and the gastrocnemius muscles are dissected and rapidly frozen in liquid nitrogen. To assess protein breakdown rates, the dissected extensor digitorum longus (EDL) muscles are tied by the tendons at resting length to stainless steel supports and preincubated in a shaking water bath for 30 min at 37° C. in individually stoppered 25 ml flasks containing oxygenated (95% 02-5% CO2) Krebs-Henseleit bicarbonate buffer (pH 7.4) with 10 mM glucose. Muscles are then transferred to fresh buffer containing 0.5 mM cycloheximide for 2 h incubation. The total (tyrosine) and myofibrillar (1-methyl-histidine, 1-Me-His) protein breakdown rates are determined by measuring the net production of tyrosine and 1-Me-His during 2 h incubation.

[2] = tested on: EDL muscle of burn-PDE4B KO rats; test: EDL muscle protein breakdown during 2 h in vitro incubation with EPAC/PKA inhibitors; assay type: cell-based, rat; conditions: EDL muscle of burn-PDE4B KO rats obtained 24 h after burn, 2 h in vitro incubation with inhibitor
Experimental: After 24 h, rats were re-anesthetized with pentobarbital (50 mg/kg), and the gastrocnemius muscles were dissected and rapidly frozen in liquid nitrogen. To assess protein breakdown rates, the dissected extensor digitorum longus (EDL) muscles were tied by the tendons at resting length to stainless steel supports and preincubated in a shaking water bath for 30 min at 37° C. in individually stoppered 25 ml flasks containing 3 ml oxygenated (95% 02-5% CO2) Krebs-Henseleit bicarbonate buffer (pH 7.4) with 10 mM glucose. Muscles were then transferred to fresh buffer containing 0.5 mM cycloheximide for 2 h incubation. The total (tyrosine) and myofibrillar (1-methyl-histidine, 1-Me-His) protein breakdown rates were determined by measuring the net production of tyrosine and 1-Me-His during 2 h incubation, according to previously published HPLC procedures (Balasubramaniam, A., et al., Torbafylline (HWA 448) inhibits skeletal muscle proteolysis in burned rats, J. Burn Care & Res. 30: S151 (2009)). The protein breakdown studies with PDE4B KO-rats were repeated with eight each of sham and burn rats to corroborate our initial findings. Additional in vivo experiments were performed to obtain tissues for biochemical studies and to study the effects of inhibitors of PKA (H89) and EPAC (ESI-09) on EDL protein breakdown in PDE4B KO-rats.
To elucidate the factor(s) imparting resistance to burn-induced skeletal muscle proteolysis in PDE4B-KO rats, EDL muscles of burn-PDE4B KO rats were incubated in the presence of inhibitors for cAMP downstream elements, PKA (H89) and EPAC (ESI-09).

[3] = tested on: burn-induced skeletal muscle proteolysis; conditions: rat, burn injury; cited from earlier work
mouse myotubes, C2C12 = conditions: C2C12 myotubes treated with TNFα+IFNγ; cited from earlier work
PDE4D in lung tissue = conditions: murine model of asthma; cited from earlier work

CCc1c(C)nc(-c2ccc(Cl)s2)nc1Nc1ccc(CC(=O)O)cc1 [Compound 33, (4-{[2-(5-Chloro-2-thienyl)-5-ethyl-6-methyl-4-pyrimidinyl]amino}phenyl) acetic acid]
1-Me-His release from the EDL muscle (myofibrillar protein breakdown) [1]: significantly decreases
Tyr release from the EDL muscle (total protein breakdown) [1]: significantly decreases

O=S(=O)(NCCNC/C=C/c1ccc(Br)cc1)c1cccc2cnccc12 [Compound H89]
burn-induced EDL muscle myofibrillar protein breakdown (1-Me-His) [2]: did not exhibit any effect
burn-induced EDL muscle total protein breakdown (Tyr) [2]: did not exhibit any effect

CC(C)(C)c1cc(C(=O)/C(C#N)=N/Nc2cccc(Cl)c2)no1 [ESI-09]
burn-induced EDL muscle myofibrillar protein breakdown (1-Me-His) [2]: to the same extent as in the EDL muscle of burn-WT rats
burn-induced EDL muscle total protein breakdown (Tyr) [2]: to the same extent as in the EDL muscle of burn-WT rats

CCOCn1cnc2c1c(=O)n(CCCCC(C)(C)O)c(=O)n2C [torbafylline]
EPAC/PI3K/Akt pathway [3]: activating
burn-induced skeletal muscle proteolysis [3]: significantly attenuated
skeletal muscle PDE4 activity [3]: normalizing
skeletal muscle cAMP concentrations [3]: normalizing
PDE4B expression (mouse myotubes, C2C12): normalized
proteolysis (protein breakdown) (mouse myotubes, C2C12): normalized

ciclamilast
PDE4D activity in lung tissue (PDE4D in lung tissue): normalized
PDE4D mRNA expression in lung tissue (PDE4D in lung tissue): normalized
